Test results reported in patent US20020019991A1, “COMPOSITIONS CONTAINING AN ALPHA 1,2-FUCOSE LINKAGE AND USES THEREOF” (ABBOTT LABORATORIES, priority 1998, published 2002).

What was measured:
V. cholerae = test: Competitive assay: inhibition of V. cholerae attachment to transfected CHO (α1-2 FT) cells, colony counting; type: cell-based, Vibrio cholerae
Protocol: (§1) To determine whether 2′Fucosyllactose is an important chemical structure of the cell receptor for V. cholerae and enterohemorrhagic E. coli (EHEC), a competitive assay was set up. A volume of 400 ul of a suspension of transfected CHO (α1-2 FT) cells at a concentration of 4×10^5 cells/mL was placed in each well of an 8-well microchamber slide (Lab-Tek, Nunc, Inc. Naperville, Ill.). Cells were incubated overnight at 37° C. in a 5% CO2 atmosphere. A bacterial suspension of 1.5×10^8 of V. cholerae was added with either 0.5, 1, or 2 mg/mL of 2′fucosyllactose and incubated at 37° C. Wells were washed 6 times with PBS. Cells were detached with […] of triton x 100 and serial dilutions in TBS or McConkey agar plates were done for colony counting.

[1] = system: enterohemorrhagic E. coli (EHEC); test: Competitive assay: inhibition of EHEC attachment to transfected CHO (α1-2 FT) cells, colony counting; type: cell-based, Escherichia coli
Protocol: as §1

[2] = system: Enteropathogenic E. coli (EPEC); type: binding, Escherichia coli
[3] = system: Enterohemorrhagic Escherichia coli (EHEC) 0157:H7 strain 933; type: binding
[4] = system: Vibrio cholerae 01 Ogawa strain 2995; type: binding

Molecule | dose dependence of inhibition of bacterial cell attachment (V. cholerae; 0.5, 1, or 2 mg/mL) | inhibition of bacterial cell attachment (V. cholerae; transfected CHO (α1-2 FT) cells, concentration as low as 0.5 mg/ml) | inhibition of binding, EHEC compared with V. cholerae ([1]; EHEC versus V. cholerae, transfected CHO cells) | dose dependence of inhibition of bacterial cell attachment ([1]; EHEC, 0.5, 1, or 2 mg/mL) | inhibition of bacterial cell attachment ([1]; EHEC, transfected CHO (α1-2 FT) cells, concentration as low as 0.5 mg/ml) | binding of EPEC to immobilized blood group antigen neoglycoprotein [2] | binding of EHEC to immobilized blood group antigen neoglycoprotein [3] | binding of V. cholerae to immobilized blood group antigen neoglycoprotein [4]
C[C@@H]1O[C@@H](O[C@H]2[C@H](O[C@H]3[C@H](O)[C@@H](O)C(O)O[C@@H]3CO)O[C@H](CO)[C@H](O)[C@@H]2O)[C@@H](O)[C@H](O)[C@@H]1O (some centres unmarked) [2′fucosyllactose, 2′-fucosyllactose (Fucα1-2Galβ1-4Glc)] | dose-dependent inhibition | significant inhibition | greater inhibition | dose-dependent inhibition | significant inhibition |  |  | 
Lewis^x |  |  |  |  |  | stronger binding | stronger binding | stronger binding
